We go through six molecules from patent US20020086861A1, “Fused 1,2,4- thiadiazine derivatives, their preparation and use” (priority 1998, published 2002).

One series relates to obese Zucker rats. The settings on record: cited from earlier work.
Series [1] concerns the target T1, KATP-channels on pancreatic beta-cells (Homo sapiens, UniProt Q09428).
T1 construct: host or cells: pancreatic beta-cells
The following applies: by an activation of KATP-channels on pancreatic beta-cells; cited from earlier work.

A further series concerns BB-rats. The following applies: cited from earlier work.

T1 sequence (Q09428 whole entry): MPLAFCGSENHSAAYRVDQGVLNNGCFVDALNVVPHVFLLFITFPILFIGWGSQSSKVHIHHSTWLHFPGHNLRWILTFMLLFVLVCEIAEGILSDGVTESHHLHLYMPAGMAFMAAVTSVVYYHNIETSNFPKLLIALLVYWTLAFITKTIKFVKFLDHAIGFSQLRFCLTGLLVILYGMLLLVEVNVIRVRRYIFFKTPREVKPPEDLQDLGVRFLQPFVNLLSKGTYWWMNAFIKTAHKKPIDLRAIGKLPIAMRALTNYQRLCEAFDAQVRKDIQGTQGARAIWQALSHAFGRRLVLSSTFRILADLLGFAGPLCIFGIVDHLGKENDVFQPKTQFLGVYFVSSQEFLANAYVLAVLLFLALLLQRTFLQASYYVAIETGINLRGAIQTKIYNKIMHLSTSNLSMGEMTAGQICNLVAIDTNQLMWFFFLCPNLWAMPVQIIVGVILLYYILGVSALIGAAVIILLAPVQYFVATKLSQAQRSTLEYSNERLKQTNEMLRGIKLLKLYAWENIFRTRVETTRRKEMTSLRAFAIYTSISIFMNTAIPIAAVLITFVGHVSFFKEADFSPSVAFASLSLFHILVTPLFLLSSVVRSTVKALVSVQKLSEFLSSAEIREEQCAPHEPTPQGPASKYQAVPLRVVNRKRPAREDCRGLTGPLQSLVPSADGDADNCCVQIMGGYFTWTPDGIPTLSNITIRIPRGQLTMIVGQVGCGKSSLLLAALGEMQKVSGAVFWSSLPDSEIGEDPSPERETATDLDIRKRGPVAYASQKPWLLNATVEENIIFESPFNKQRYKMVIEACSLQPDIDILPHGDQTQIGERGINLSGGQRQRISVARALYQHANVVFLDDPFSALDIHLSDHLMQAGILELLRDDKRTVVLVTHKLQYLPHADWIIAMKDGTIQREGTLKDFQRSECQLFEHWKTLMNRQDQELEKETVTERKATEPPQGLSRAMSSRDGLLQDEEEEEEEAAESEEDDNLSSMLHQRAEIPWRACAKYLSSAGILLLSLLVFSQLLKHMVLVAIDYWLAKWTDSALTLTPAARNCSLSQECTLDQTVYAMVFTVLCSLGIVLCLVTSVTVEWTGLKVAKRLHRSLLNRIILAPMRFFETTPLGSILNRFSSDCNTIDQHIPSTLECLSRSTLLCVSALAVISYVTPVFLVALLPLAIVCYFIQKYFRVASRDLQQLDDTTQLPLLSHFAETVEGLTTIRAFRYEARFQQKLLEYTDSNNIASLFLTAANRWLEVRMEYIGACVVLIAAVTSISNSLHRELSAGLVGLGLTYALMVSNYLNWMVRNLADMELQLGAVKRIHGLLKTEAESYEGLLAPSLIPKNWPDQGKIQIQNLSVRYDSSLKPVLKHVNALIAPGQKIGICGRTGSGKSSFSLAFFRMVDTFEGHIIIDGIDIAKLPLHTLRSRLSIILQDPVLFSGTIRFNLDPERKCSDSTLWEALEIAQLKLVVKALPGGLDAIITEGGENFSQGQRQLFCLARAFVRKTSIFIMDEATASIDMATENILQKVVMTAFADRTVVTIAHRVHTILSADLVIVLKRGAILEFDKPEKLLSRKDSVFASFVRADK
T1 sequence (Q14654 whole entry partner): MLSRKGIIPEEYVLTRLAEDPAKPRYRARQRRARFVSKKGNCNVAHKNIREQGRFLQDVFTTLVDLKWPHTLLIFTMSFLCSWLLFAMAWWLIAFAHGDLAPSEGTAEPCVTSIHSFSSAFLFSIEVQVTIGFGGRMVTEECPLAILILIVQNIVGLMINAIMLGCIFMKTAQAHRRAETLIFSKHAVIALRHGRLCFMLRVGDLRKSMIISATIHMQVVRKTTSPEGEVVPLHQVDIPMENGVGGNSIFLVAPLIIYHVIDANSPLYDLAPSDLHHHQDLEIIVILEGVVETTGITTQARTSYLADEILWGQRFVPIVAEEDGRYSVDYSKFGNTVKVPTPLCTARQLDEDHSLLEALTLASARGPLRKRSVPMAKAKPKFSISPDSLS

In the case of `O=S1(=O)N=C(NC2(CO)CCCC2)Nc2cc(Cl)sc21` [Example 9, 6-Chloro-3-(1-hydroxymethylcyclopentyl)amino-4H-thieno[3,2-e]-1,2,4-thiadiazine 1,1-dioxide], the melting point (as a rule, the temperature, or range, at which the solid turns liquid) fell in the range of 213 to 214 °C.
On the same count and under the same terms, next, `O=S1(=O)N=C(NC23CC4CC(CC(C4)C2)C3)Nc2cc(Cl)sc21` [Example 6, 3-(1-Adamantyl)amino-6-chloro-4H-thieno[3,2-e]-1,2,4-thiadiazine 1,1-dioxide]: 339 to 340 °C.
As for `CC(C)(NC1=NS(=O)(=O)c2sc(Cl)cc2N1)c1ccccc1` [Example 10, 6-Chloro-3-(1-methyl-1-phenylethyl)amino-4H-thieno[3,2-e]-1,2,4-thiadiazine 1,1-dioxide], the melting point was ~ 360 °C (dec.).
`CC1(NC2=NS(=O)(=O)c3sc(Cl)cc3N2)CCC1` [Example 13, 6-Chloro-3-(1-methylcyclobutyl)amino-4H-thieno[3,2-e]-1,2,4-thiadiazine 1,1-dioxide] showed a melting point of 294 to 296 °C.
The molecule `CC(C)(CO)NC1=NS(=O)(=O)c2sc(Cl)cc2N1` [Example 4, 6-Chloro-3-(2-hydroxy-1,1-dimethylethylamino)-4H-thieno[3,2-e]-1,2,4-thiadiazine 1,1-dioxide] returned a melting point of 224 to 226 °C.
As to `CC1=Nc2ccc(Cl)cc2S(=O)(=O)N1` [diazoxide, 7-chloro-3-methyl-2H-1,2,4-benzothiadiazine 1,1-dioxide], in the series with obese Zucker rats, the glucose tolerance entry is given as “improve glucose tolerance”, the insulin receptor binding entry is “increase insulin receptor binding”, the insulin secretion entry is “decrease insulin secretion” and the weight gain entry is “decrease weight gain”. Also, the insulin release entry in series [1] is reported as “inhibit insulin release”. Also, the onset of diabetes entry in the series on BB-rats is given as “delay the onset of diabetes”.
